Results taken from US20260297081A1, “COMPOUNDS AND METHODS OF TREATING CANCERS” (Cullgen Inc., priority 2023, published 2026).

Legend:
Assay type in all cases: cell-based
Calu-1 cells = assay: Anti-proliferation (viability) of NSCLC Calu-1 cells, 3 days (Table 7, FIG. 2B); settings: Homo sapiens, 72 h; Calu-1 cells, 3 days, 10-point serial dilution; read-out: GI IC50 in Calu-1
Summary of the method: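 Heterobifunctional compounds are tested in 10-point serial dilutions on Calu-1 (3-day exposure) and T47D (6-day exposure) cells.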

T47D cells = assay: Anti-proliferation (viability) of ER+ breast cancer T47D cells, 6 days (Table 7, FIG. 2B); settings: Homo sapiens, 144 h; T47D cells, 6 days, 10-point serial dilution; read-out: GI IC50 in T47D
Description: To evaluate anti-proliferation activities of heterobifunctional compounds, NSCLC Calu-1 or ER+ breast cancer T47D cells were treated with selected heterobifunctional compounds following a 10-point serial dilution for 3 or 6 days, respectively.
To verify that heterobifunctional compound-mediated degradation is dependent on the binding to CDK4-cyclin D complex, a negative control compound, CPD-143, which is derived from active heterobifunctional compound CPD-10 was designed. CPD-143 bears the same DDB1 ligand and linker as CPD-10 but with a modified warhead to impair the binding of the control compound to CDK4.

MCF7 cells = assay: Anti-proliferation (viability) of MCF7 cells (Table 7, FIG. 2B); settings: Homo sapiens, MCF7, MCF7 cells, 3-6 days, 10-point serial dilution; read-out: GI IC50 in MCF-7
CDK4 = CDK4 (Homo sapiens, UniProt P11802+Q16531); assay: CDK4 percentage degradation in Calu-1 cells (Table 6); set-up: Cells that express cyclin D1-3 and CDK4/6 proteins were treated with heterobifunctional compounds; endogenous in cells; host or cells: Calu-1; settings: 16 hours; for inhibition at 0.04 µM: 40 nM; for inhibition at 0.2 µM: 200 nM
Summary of the method: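 Percentage degradation of Cyclin D1 and CDK4 derived from densitometry of ECL Western blots on lysates of Calu-1 cells. Treatment was 16 h with compound at either 40 nM or 200 nM.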

Chain of CDK4 (P11802 2-303 limits assumed): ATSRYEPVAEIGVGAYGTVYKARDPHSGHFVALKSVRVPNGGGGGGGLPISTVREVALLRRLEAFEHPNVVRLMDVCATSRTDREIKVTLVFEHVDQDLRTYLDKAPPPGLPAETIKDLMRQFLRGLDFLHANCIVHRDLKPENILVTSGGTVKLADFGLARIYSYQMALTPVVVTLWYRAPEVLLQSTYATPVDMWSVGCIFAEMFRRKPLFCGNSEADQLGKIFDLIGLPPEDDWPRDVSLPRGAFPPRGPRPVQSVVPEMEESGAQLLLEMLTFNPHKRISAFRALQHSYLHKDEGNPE
Chain of CDK4 (P24385 whole entry partner): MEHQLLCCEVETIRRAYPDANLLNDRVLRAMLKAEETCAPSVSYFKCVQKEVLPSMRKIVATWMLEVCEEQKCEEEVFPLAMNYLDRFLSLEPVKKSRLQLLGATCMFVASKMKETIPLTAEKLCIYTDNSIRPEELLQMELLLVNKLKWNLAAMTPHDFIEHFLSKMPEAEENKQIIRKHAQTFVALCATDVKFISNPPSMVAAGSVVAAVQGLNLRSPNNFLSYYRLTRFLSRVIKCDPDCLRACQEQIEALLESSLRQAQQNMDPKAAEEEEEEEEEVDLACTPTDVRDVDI
Chain of CDK4 (Q16531 2-1140 limits assumed): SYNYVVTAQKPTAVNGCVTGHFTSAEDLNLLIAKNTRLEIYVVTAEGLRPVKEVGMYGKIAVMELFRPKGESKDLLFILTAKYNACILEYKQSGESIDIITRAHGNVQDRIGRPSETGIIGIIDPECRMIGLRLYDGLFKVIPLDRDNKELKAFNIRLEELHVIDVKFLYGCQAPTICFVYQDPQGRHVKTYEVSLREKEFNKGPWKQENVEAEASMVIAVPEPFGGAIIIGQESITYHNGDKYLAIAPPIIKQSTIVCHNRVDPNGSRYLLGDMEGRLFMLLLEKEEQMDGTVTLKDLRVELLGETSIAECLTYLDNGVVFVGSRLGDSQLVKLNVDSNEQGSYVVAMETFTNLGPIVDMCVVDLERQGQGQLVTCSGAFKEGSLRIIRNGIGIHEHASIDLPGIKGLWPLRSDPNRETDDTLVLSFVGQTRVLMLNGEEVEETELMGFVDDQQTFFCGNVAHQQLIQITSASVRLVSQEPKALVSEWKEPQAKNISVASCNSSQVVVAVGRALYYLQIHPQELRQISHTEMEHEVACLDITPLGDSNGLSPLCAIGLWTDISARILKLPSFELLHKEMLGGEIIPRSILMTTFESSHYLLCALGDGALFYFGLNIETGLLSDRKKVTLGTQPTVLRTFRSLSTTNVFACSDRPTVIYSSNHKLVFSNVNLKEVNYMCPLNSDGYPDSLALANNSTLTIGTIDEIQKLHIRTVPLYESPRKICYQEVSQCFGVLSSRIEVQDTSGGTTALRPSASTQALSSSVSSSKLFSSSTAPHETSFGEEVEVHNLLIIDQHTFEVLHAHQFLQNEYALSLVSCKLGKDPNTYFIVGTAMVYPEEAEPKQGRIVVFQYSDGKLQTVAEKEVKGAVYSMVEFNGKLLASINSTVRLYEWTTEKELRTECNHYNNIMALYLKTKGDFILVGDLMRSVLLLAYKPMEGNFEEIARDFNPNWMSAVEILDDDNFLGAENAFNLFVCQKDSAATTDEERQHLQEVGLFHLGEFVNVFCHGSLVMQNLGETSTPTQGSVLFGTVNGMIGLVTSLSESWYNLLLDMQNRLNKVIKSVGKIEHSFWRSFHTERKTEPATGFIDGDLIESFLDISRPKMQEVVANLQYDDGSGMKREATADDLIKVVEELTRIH

Row | IC50 (Calu-1 cells) [nM] | IC50 (T47D cells) [nM] | IC50 (MCF7 cells) [nM] | inhibition at 0.04 µM (CDK4) [%] | inhibition at 0.2 µM (CDK4) [%] | SMILES
1 | ≤ 10 | ≤ 50 | < 50 | 50 to 80 | 50 to 80 | CC(=O)c1c(C)c2cnc(Nc3ccc(N4CCN(CC(=O)NCCCCCNc5nc(C)ccc5C(=O)Nc5ccc(N(C)C)nn5)CC4)cn3)nc2n(C2CCCC2)c1=O [CPD-16, 2-((5-(2-(4-(6-((6-Acetyl-8-cyclopentyl-5-methyl-7-oxo-7,8-dihydropyrido[2,3-d]pyrimidin-2-yl)amino)pyridin-3-yl)piperazin-1-yl)acetamido)pentyl)amino)-N-(6-(dimethylamino)pyridazin-3-yl)-6-methylnicotinamide]
2 | ≤ 10 | ≤ 50 | < 50 | 50 to 80 | 50 to 80 | CC(=O)c1c(C)c2cnc(Nc3ccc(N4CCN(CC(=O)NCCCCCNc5nc(NC(C)C)ccc5C(=O)Nc5ccc(N(C)C)nn5)CC4)cn3)nc2n(C2CCCC2)c1=O [CPD-18, 2-((5-(2-(4-(6-((6-Acetyl-8-cyclopentyl-5-methyl-7-oxo-7,8-dihydropyrido[2,3-d]pyrimidin-2-yl)amino)pyridin-3-yl)piperazin-1-yl)acetamido)pentyl)amino)-N-(6-(dimethylamino)pyridazin-3-yl)-6-(isopropylamino)nicotinamide]
3 | 10 to 50 | 50 to 100 | > 100 | 50 to 80 | – | CNc1ccc(C(=O)Nc2ccc(N(C)C)nn2)c(NCCCCCNCCN2CCN(c3ccc(Nc4ncc5c(C)c(C(C)=O)c(=O)n(C6CCCC6)c5n4)nc3)CC2)n1 [CPD-21, 2-((5-((2-(4-(6-((6-Acetyl-8-cyclopentyl-5-methyl-7-oxo-7,8-dihydropyrido[2,3-d]pyrimidin-2-yl)amino)pyridin-3-yl)piperazin-1-yl)ethyl)amino)pentyl)amino)-N-(6-(dimethylamino)pyridazin-3-yl)-6-(methylamino)nicotinamide]
4 | ≤ 10 | ≤ 50 | 50 to 100 | > 80 | > 80 | CNc1ccc(C(=O)Nc2ccc(N(C)C)nn2)c(NCCCCC(C)NC(=O)CN2CCN(c3ccc(Nc4ncc5c(C)c(C(C)=O)c(=O)n(C6CCCC6)c5n4)nc3)CC2)n1 (stereo not drawn) [CPD-22, 2-((5-(2-(4-(6-((6-Acetyl-8-cyclopentyl-5-methyl-7-oxo-7,8-dihydropyrido[2,3-d]pyrimidin-2-yl)amino)pyridin-3-yl)piperazin-1-yl)acetamido)hexyl)amino)-N-(6-(dimethylamino)pyridazin-3-yl)-6-(methylamino)nicotinamide]
5 | ≤ 10 | 50 to 100 | 50 to 100 | > 80 | > 80 | CC(=O)c1c(C)c2cnc(Nc3ccc(N4CCN(CC(=O)NCCCCCNc5nc(C6CC6)ccc5C(=O)Nc5ccc(N(C)C)nn5)CC4)cn3)nc2n(C2CCCC2)c1=O [CPD-27, 2-((5-(2-(4-(6-((6-Acetyl-8-cyclopentyl-5-methyl-7-oxo-7,8-dihydropyrido[2,3-d]pyrimidin-2-yl)amino)pyridin-3-yl)piperazin-1-yl)acetamido)pentyl)amino)-6-cyclopropyl-N-(6-(dimethylamino)pyridazin-3-yl)nicotinamide]
6 | ≤ 10 | ≤ 50 | < 50 | > 80 | > 80 | CNc1ccc(C(=O)Nc2ccc(N(C)C)nn2)c(NC2CC(CCNC(=O)CN3CCN(c4ccc(Nc5ncc6c(C)c(C(C)=O)c(=O)n(C7CCCC7)c6n5)nc4)CC3)C2)n1 (stereo not drawn) [CPD-34, 2-((3-(2-(2-(4-(6-((6-Acetyl-8-cyclopentyl-5-methyl-7-oxo-7,8-dihydropyrido[2,3-d]pyrimidin-2-yl)amino)pyridin-3-yl)piperazin-1-yl)acetamido)ethyl)cyclobutyl)amino)-N-(6-(dimethylamino)pyridazin-3-yl)-6-(methylamino)nicotinamide]

More lines, now with the values behind:

Row | SMILES | IC50 (Calu-1 cells) [nM] | IC50 (T47D cells) [nM] | IC50 (MCF7 cells) [nM] | inhibition at 0.04 µM (CDK4) [%] | inhibition at 0.2 µM (CDK4) [%]
7 | CNc1ccc(C(=O)Nc2ccc(N(C)C)nn2)c(Nc2cnn(CCNC(=O)CN3CCN(c4ccc(Nc5ncc6c(C)c(C(C)=O)c(=O)n(C7CCCC7)c6n5)nc4)CC3)c2)n1 [CPD-24, 2-((1-(2-(2-(4-(6-((6-Acetyl-8-cyclopentyl-5-methyl-7-oxo-7,8-dihydropyrido[2,3-d]pyrimidin-2-yl)amino)pyridin-3-yl)piperazin-1-yl)acetamido)ethyl)-1H-pyrazol-4-yl)amino)-N-(6-(dimethylamino)pyridazin-3-yl)-6-(methylamino)nicotinamide] | 10 to 50 | ≥ 100 | > 100 | 50 to 80 | > 80
8 | CNc1ccc(C(=O)Nc2ccc(N(C)C)nn2)c(Nc2cc(CCNC(=O)CN3CCN(c4ccc(Nc5ncc6c(C)c(C(C)=O)c(=O)n(C7CCCC7)c6n5)nc4)CC3)no2)n1 [CPD-26, 2-((3-(2-(2-(4-(6-((6-Acetyl-8-cyclopentyl-5-methyl-7-oxo-7,8-dihydropyrido[2,3-d]pyrimidin-2-yl)amino)pyridin-3-yl)piperazin-1-yl)acetamido)ethyl)isoxazol-5-yl)amino)-N-(6-(dimethylamino)pyridazin-3-yl)-6-(methylamino)nicotinamide] | 10 to 50 | 50 to 100 | > 100 | 50 to 80 | 50 to 80
9 | CNc1ccc(C(=O)Nc2ccc(N(C)C)nn2)c(NCCCCn2cc(CN3CCN(c4ccc(Nc5ncc6c(C)c(C(C)=O)c(=O)n(C7CCCC7)c6n5)nc4)CC3)nn2)n1 [CPD-30, 2-((4-(4-((4-(6-((6-Acetyl-8-cyclopentyl-5-methyl-7-oxo-7,8-dihydropyrido[2,3-d]pyrimidin-2-yl)amino)pyridin-3-yl)piperazin-1-yl)methyl)-1H-1,2,3-triazol-1-yl)butyl)amino)-N-(6-(dimethylamino)pyridazin-3-yl)-6-(methylamino)nicotinamide] | 10 to 50 | 50 to 100 | > 100 | 50 to 80 | > 80
10 | CNc1ccc(C(=O)Nc2ccc3c(ccn3C)n2)c(NCCCCCNC(=O)CN2CCN(c3ccc(Nc4ncc5c(C)c(C(C)=O)c(=O)n(C6CCCC6)c5n4)nc3)CC2)n1 [CPD-33, 2-((5-(2-(4-(6-((6-Acetyl-8-cyclopentyl-5-methyl-7-oxo-7,8-dihydropyrido[2,3-d]pyrimidin-2-yl)amino)pyridin-3-yl)piperazin-1-yl)acetamido)pentyl)amino)-N-(1-methyl-1H-pyrrolo[3,2-b]pyridin-5-yl)-6-(methylamino)nicotinamide] | 10 to 50 | 50 to 100 | > 100 | 50 to 80 | > 80
11 | CNc1ccc(C(=O)Nc2ccc3ncn(C)c3n2)c(NCCCCCNC(=O)CN2CCN(c3ccc(Nc4ncc5c(C)c(C(C)=O)c(=O)n(C6CCCC6)c5n4)nc3)CC2)n1 [CPD-38, 2-((5-(2-(4-(6-((6-Acetyl-8-cyclopentyl-5-methyl-7-oxo-7,8-dihydropyrido[2,3-d]pyrimidin-2-yl)amino)pyridin-3-yl)piperazin-1-yl)acetamido)pentyl)amino)-N-(3-methyl-3H-imidazo[4,5-b]pyridin-5-yl)-6-(methylamino)nicotinamide] | ≤ 10 | 50 to 100 | > 100 | 50 to 80 | > 80
